According to PubChem BioAssay (NCI):
Where “and” joins values, the source holds several entries; their conditions need not be identical. Identical values can stand only once.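 Exposure lasted 48 hours, with cells grown in 96-well plates and compounds tested at five concentrations. GI50 = concentration required for 50% inhibition of growth. TGI is the concentration that stops growth completely.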

Assays:
Assay in all cases: NCI tumour cell line growth inhibition, 48 h
786-0 renal = system: 786-0 renal
CCRF-CEM leukemia = system: CCRF-CEM leukemia
HCT-116 colon = system: HCT-116 colon
NCI-H226 lung = system: NCI-H226 lung
NCI-H460 lung = system: NCI-H460 lung
RPMI-8226 leukemia = system: RPMI-8226 leukemia
SK-MEL-5 melanoma = system: SK-MEL-5 melanoma
T-47D breast = system: T-47D breast

SMILES	GI50 (786-0 renal)	TGI (786-0 renal)	GI50 (CCRF-CEM leukemia)	TGI (CCRF-CEM leukemia)	GI50 (HCT-116 colon)	TGI (HCT-116 colon)	GI50 (NCI-H226 lung)	TGI (NCI-H226 lung)	GI50 (NCI-H460 lung)	TGI (NCI-H460 lung)	GI50 (RPMI-8226 leukemia)	TGI (RPMI-8226 leukemia)	GI50 (SK-MEL-5 melanoma)	TGI (SK-MEL-5 melanoma)	GI50 (T-47D breast)	TGI (T-47D breast)
O=C(/C=C/C12c3ccccc3C(c3ccccc31)C1C(=O)NC(=O)C12)c1ccc(F)cc1 (configuration not stated)	1.79 µM	3.35 µM	2.45 µM	8.42 µM	1.58 µM	3.41 µM	2.74 µM	9.51 µM	2.04 µM	5.05 µM	1.62 µM	4.39 µM	1.72 µM	3.16 µM	2.52 µM	8.13 µM
CC(C(N)C(=O)NC(C(=O)O)C1OC(n2ccc(=O)[nH]c2=O)C(O)C1O)C(O)c1ccc(O)cn1 (configuration not stated)		> 100 µM		> 100 µM		> 100 µM				> 100 µM		> 100 µM		> 100 µM		> 100 µM
O=C1C=CC(=O)N1c1cccc(N2C(=O)C=CC2=O)c1	1.84 µM	3.44 µM	2.27 µM	7.65 µM	1.7 µM	3.22 µM	2.91 µM	7.63 µM	18.3 µM	38.6 µM	2.94 µM	7.19 µM	10.9 µM	23 µM		
CC1=C(C(=O)Nc2cc(Cl)c3[nH]ncc3c2)C(c2ccc(C(F)(F)F)cc2)CC(=O)N1 (configuration not stated)	11.7 µM	> 25 µM	13.8 µM	> 25 µM	> 22.4 µM	> 25 µM	2.11 µM	> 25 µM	> 25 µM	> 25 µM	24.9 µM	> 25 µM	11.4 µM	> 25 µM	> 12.8 µM	> 25 µM
COc1cc2nccc(Oc3ccc(NC(=O)Nc4cc(C)on4)c(Cl)c3)c2cc1OC	3.43 µM and 4.11 µM	23.3 µM and > 10 µM	3.1 µM	> 100 µM	2.29 µM and 2.91 µM	5.48 µM and > 10 µM	0.795 µM and 0.438 µM	35.2 µM and > 10 µM	3.41 µM and 4.31 µM	> 70.4 µM	9.83 µM and 4.33 µM	> 55.7 µM	2.04 µM and 2.81 µM	5.69 µM and > 10 µM	2.98 µM and 3.35 µM	23.2 µM and > 10 µM
Cc1cc(N2CCOCC2)nc(N(CCCNc2ccnc3cc(Cl)ccc23)Cc2ccco2)n1	1.58 µM	3.17 µM	2.67 µM	18.3 µM	2.2 µM	10.5 µM	12 µM	33.9 µM	3.28 µM	13.7 µM	2.13 µM	6.33 µM	1.82 µM	3.65 µM	2.06 µM	7.26 µM
O=C1C2CCN(CC2)C1(CO)CO		44 µM		32.2 µM		30.9 µM		46.6 µM		> 100 µM		43.4 µM		> 73.3 µM		45.4 µM
CN1CCN(c2ccc(NC(=O)c3cncnc3Nc3ccc(OCc4ccccn4)c(Cl)c3)cc2)CC1	0.763 µM	1.68 µM	1.86 µM	10.5 µM	0.788 µM	1.91 µM	5.42 µM	13 µM	2.27 µM	7.57 µM	1.33 µM	6.7 µM	1.77 µM	6.01 µM	1.98 µM	7.83 µM
CC(=O)O[C@H](C[C@H](C(C)C)N(C)C(=O)[C@@H](NC(=O)[C@H]1CCCN1C)C(C)C)c1nc(C(=O)N[C@@H](Cc2ccccc2)C[C@H](C)C(=O)O)c(C)s1	0.00441 µM	> 16.7 µM	< 0.00167 µM	> 16.7 µM	< 0.00167 µM	> 16.7 µM			< 0.00167 µM	> 16.7 µM	< 0.00167 µM	> 16.7 µM	< 0.00167 µM	0.0243 µM		
CCOC(=O)C#Cc1c(C(=O)OCC)nnn1Cc1ccc([N+](=O)[O-])cc1	3.29 µM	10.8 µM	1.26 µM	5 µM	2.02 µM	4.3 µM	1.72 µM	3.33 µM	11.1 µM	28 µM	2.8 µM	7.37 µM	8.86 µM	21 µM	2.78 µM	7.65 µM
CC(=O)O[C@H]1[C@@H]2OC(=O)C(CSc3ccccc3)[C@@H]2C[C@H]2O[C@]2(C)CC/C=C(\C)CCC[C@@H]1C (some centres not stated)	2.81 µM	8.29 µM	2.17 µM	> 21.1 µM	1.46 µM	2.91 µM	4.69 µM	18 µM	4.4 µM	19.3 µM	0.192 µM	10.4 µM	2.57 µM	8.65 µM	2.43 µM	12.6 µM
CC(CN(C)C)Oc1ccccc1NC1=C(Cl)C(=O)C(Nc2ccccc2OC(C)CN(C)C)=C(Cl)C1=O (configuration not stated)	0.708 µM	2.01 µM	0.265 µM	0.882 µM	0.17 µM	0.344 µM	1.41 µM	2.91 µM	1.3 µM	2.9 µM	0.372 µM	1.95 µM	1.56 µM	2.94 µM	0.175 µM	0.455 µM
CN(CC(=O)Nc1nc2ccccc2[nH]1)S(=O)(=O)c1ccc(Cl)cc1	> 100 µM	> 100 µM	> 100 µM	> 100 µM	> 100 µM	> 100 µM	> 100 µM	> 100 µM	> 100 µM	> 100 µM	> 100 µM	> 100 µM	> 100 µM	> 100 µM	> 100 µM	> 100 µM
NS(=O)(=O)CC1CC[CH-]CC1.[Cl-].[Cl-].[Cl-].[Cl-].[Cl-].[Sb+5].c1ccncc1	> 100 µM	> 100 µM			> 100 µM	> 100 µM	> 100 µM	> 100 µM	> 100 µM	> 100 µM	> 100 µM	> 100 µM	> 100 µM	> 100 µM	> 100 µM	> 100 µM
CCn1c(-c2nonc2N)nc2c(C#CC(C)(C)O)ncc(OC[C@H]3CCCNC3)c21	0.46 µM	16 µM	0.335 µM	47.2 µM	12.9 µM	> 95.9 µM	21.1 µM	52.2 µM	10.6 µM	28.5 µM	17.4 µM	50.5 µM	14.3 µM	31.2 µM		
Oc1c(Cl)cc(Cl)cc1C(c1cc(Cl)cc(Cl)c1O)C(Cl)(Cl)Cl	2.4 µM	7.45 µM	2.86 µM	24.8 µM	1.32 µM	3.67 µM	2.18 µM	5.89 µM	2.01 µM	9.38 µM	1.8 µM	54.2 µM	1.21 µM	2.73 µM	2.39 µM	11.3 µM
CN(Cc1cc(Br)cc(Br)c1O)Cc1c(O)ccc2ccccc12		36.2 µM		60.6 µM		40.6 µM		40.5 µM		54.2 µM		> 100 µM		33.1 µM		43.8 µM

SMILES	GI50 (786-0 renal)	TGI (786-0 renal)	GI50 (CCRF-CEM leukemia)	TGI (CCRF-CEM leukemia)	GI50 (HCT-116 colon)	TGI (HCT-116 colon)	GI50 (NCI-H226 lung)	TGI (NCI-H226 lung)	GI50 (NCI-H460 lung)	TGI (NCI-H460 lung)	GI50 (RPMI-8226 leukemia)	TGI (RPMI-8226 leukemia)	GI50 (SK-MEL-5 melanoma)	TGI (SK-MEL-5 melanoma)	GI50 (T-47D breast)	TGI (T-47D breast)
CCN(CC)C(=S)SCN1C(=O)c2ccccc2S1(=O)=O	31.4 µM	> 100 µM	< 0.01 µM	0.016 µM	54.2 µM	> 100 µM	65.5 µM	> 100 µM	0.928 µM	> 100 µM	< 0.01 µM		6.67 µM	> 100 µM	36 µM	> 100 µM
Nc1ccc(-c2cccs2)cc1NC(=O)c1ccc(CCCC(=O)Nc2ccc(C3CC3N)cc2)cc1 (configuration not stated)	1.61 µM	3.37 µM					2.7 µM	7.57 µM					1.91 µM	6.23 µM	1.75 µM	4.82 µM
CCCN(CCC)c1ccc(/C=N/NC(=O)c2cccnc2)c(OC)c1	32.7 µM	> 100 µM	25.5 µM	> 100 µM	22.7 µM	> 100 µM	32 µM	> 100 µM	24.1 µM	75.4 µM	34.5 µM	> 100 µM	14.3 µM	28.1 µM	17.3 µM	50.8 µM
CCCCCCCCCCCCCCCCCCOCC(CCP(=O)(CP(=O)(O)O)Oc1ccccc1)OCCCCCCCCCCCCCCCCCC (configuration not stated)		> 100 µM		> 100 µM		> 100 µM		> 100 µM		> 100 µM		> 100 µM		> 100 µM		> 100 µM
Clc1ccccc1CNc1c2ccccc2nc2ccccc12	2.72 µM	11 µM	2.74 µM	50 µM	1.65 µM	8.1 µM	2.22 µM	10.1 µM	1.7 µM	6.19 µM			3.09 µM	9.34 µM	2.3 µM	13 µM
CC(=O)c1c(CO[N+](=O)[O-])n([O-])c2ccccc2[n+]1=O		> 100 µM		> 100 µM		> 100 µM		> 100 µM		> 100 µM		> 100 µM		> 100 µM		> 100 µM
CC1(C)NCCC[C@]2(C)[C@H]3CC[C@@H]4[C@H]5[C@H](C(=O)/C=C/c6ccccn6)CC[C@]5(CO)CC[C@@]4(C)[C@]3(C)CC[C@@H]12	2.43 µM	6.26 µM	2.71 µM	11.4 µM	1.72 µM	3.15 µM	4.24 µM	20.7 µM	1.78 µM	3.49 µM	2.16 µM	5.58 µM	2 µM	4.07 µM	2.78 µM	16 µM
CO/N=C(\COc1ccc2oc(-c3ccccc3)cc(=O)c2c1)c1ccc(OC)cc1	21.9 µM	48.9 µM	29.7 µM	74.8 µM	16.9 µM	33.8 µM	50.1 µM	> 100 µM			27.9 µM	81.9 µM	22.2 µM	46.7 µM	22.8 µM	63.8 µM
COc1cc(C2=N/C(=C/c3cccs3)C(=O)O2)cc(OC)c1OC		> 100 µM		> 100 µM		> 100 µM		> 100 µM		> 100 µM		> 100 µM		> 100 µM		> 100 µM
CC(C)=CCC/C(C)=C\CCC1(C)OC(=O)C2CC21 (configuration not stated)	> 100 µM and 17.5 µM	> 100 µM and 32.7 µM			52.3 µM and 16.6 µM	> 100 µM and 31.6 µM	48.4 µM and 18.8 µM	> 100 µM and 42.6 µM	41.7 µM and 14 µM	> 100 µM and 27 µM		68.1 µM and 44.2 µM		> 100 µM		> 100 µM
Fc1cccc(-n2ccc(-c3ccccc3)nc2=S)c1	21.2 µM	44.1 µM	> 85.3 µM	> 100 µM	21.9 µM	61.3 µM	18.1 µM	36.5 µM	> 100 µM	> 100 µM	47.1 µM	> 100 µM	23.1 µM	> 73.1 µM		
NS(=O)(=O)c1ccc(N(/C=C/C(=O)C(F)(F)F)Cc2ccc(Cl)cc2)cc1	13.2 µM	27 µM	16 µM	40.3 µM	14.7 µM	28.1 µM			67.9 µM	> 100 µM	26.2 µM	89.1 µM	19.2 µM	38 µM	20.8 µM	97.5 µM
O=C(O)c1c(=O)cccc2ssc12	1.88 µM	3.44 µM			1.62 µM	3.32 µM	1.87 µM	3.6 µM	1.96 µM	4.13 µM	2.19 µM	5.66 µM	2.41 µM	5.85 µM	2.15 µM	5.24 µM
N#Cc1cc(S(=O)(=O)Nc2nnc(-c3ccccc3)c(-c3ccccc3)n2)c(SCc2ccccc2)cc1Cl	24.6 µM	64.1 µM	7.06 µM	> 100 µM	18.5 µM	36.2 µM	27.6 µM	70.7 µM	38.7 µM	> 100 µM	16.4 µM	51.9 µM	23 µM	51.4 µM		
O=C(NO)[C@@H](Cc1ccccc1)NS(=O)(=O)c1ccc(-c2ccccc2)cc1	11.9 µM	> 25 µM	> 25 µM	> 25 µM	11.7 µM	> 25 µM	> 25 µM	> 25 µM	13.6 µM	> 25 µM			20.6 µM	> 25 µM	> 25 µM	> 25 µM
O=NNc1ccc(Sc2ccc(NN=O)cn2)nc1		> 100 µM		> 100 µM		> 100 µM		> 100 µM		> 100 µM				> 100 µM		> 100 µM
